Key:
[1] = tested on: IL-1β, IL-6 and TNF-α; test: Inflammatory cytokine secretion by ELISA in LPS-stimulated macrophages; format: cell-based; conditions: macrophages pretreated 1 hr with 15 µm, then 500 ng/ml LPS for 24 hrs, Figure 5
Method: (§1) To evaluate the ability of the synergistic composition of the invention to inhibit the NF-kβ activity in macrophages of rats, we used the DNA-binding activity assay of NF-kβ p65 by ELISA kit for TransAM p65 transcription factor (Active Motif, Carlsbad, CA). The cells were stimulated with 500 ng/ml of LPS in the presence and absence of 15 µm of CAP, 15 µm of ASX or a 15 µm combination of CAP + ASX, for 12 hours, according to the invention. Then, the DNA-binding activity of NF-kβ p65 was determined. 12 hours thereafter LPS stimulation markedly promoted the DNA-binding activity of NF-kβ p65 and the expression of proinflammatory cytokines IL-1β, IL-6, and TNF-α. […] Consistently, similar effects were shown in terms of cytokine expression (Figure 5). An immortalized macrophage cell line was used. The cells were pretreated or not for 1 hr with 15 µm of CAP, 15 µm of ASX or 15 µm of CAP+ASX, and then exposed to 500 ng/ml of LPS for another 24 hrs. IL-1b, IL-6 and TNF-a were detected by ELISA kit purchased from Abcam, Cambridge, (MA) USA. The data are expressed as mean ±SEM, n = 4; *p < 0.001 vs. LPS, **p < 0.001 vs. CAP or ASX alone.

[2] = tested on: NF-kβ p65; test: NF-kβ p65 DNA-binding activity, TransAM p65 ELISA kit, in LPS-stimulated macrophages; format: cell-based, rats; conditions: 500 ng/ml LPS, 15 µm, 12 hours, Fig. 4
Method: as §1

[3] = tested on: Nrf2; test: Nrf2 protein expression in nuclear extracts by Western blot; format: cell-based; conditions: cultured human fibroblasts, final concentration 15 µM, 1 hr up to 12 hrs, Figure 3
Method: The cultured human fibroblasts were exposed to CAP, ASX or to a combination of the two compounds at the final concentration of 15 µM to evaluate the Nrf2 protein expression over time. […] The […] were washed twice with PBS 1X. The cells were then harvested in 1 ml of 1X PBS and centrifuged at 3000 rpm for 3 min at 4 °C. The cell pellet was carefully resuspended in […] of cold buffer containing 10 mM of HEPES (pH 7.9), 10 mM of KCl, 0.1 mM of EDTA, 0.1 mM of EGTA, 1 µM of DTT, and cocktail complete with protease inhibitors (Roche, Mannheim, Germany). The pellet was then incubated on ice for 15 min to allow the cells to swell. After this time, 15 µl of 10% NP-40 were added and the tube was mixed with vortex for 10 s. The homogenate was then centrifuged at 3000 rpm for 3 min at 4 °C and the nuclear pellet was resuspended in 30 µl of cold buffer consisting of 20 mM of HEPES (pH 7.9), 0.4 M of NaCl, 1 mM of EDTA, 1 mM of EGTA, 1 µM of DTT and protease inhibitors. The pellet was then incubated on ice for 15 min and vortexed for 10 - 15 s every 2 min. The nuclear extract was finally centrifuged at 13,000 rpm for 5 min at 4 °C. The supernatant containing the nuclear proteins was broken down by SDS-polyacrylamide gel and subjected to immunoblot analysis using anti-Nrf2 (1:500 dilution) and anti-Sp1 (1:500 dilution) antibodies.

[4] = tested on: HO-1; test: HO-1 mRNA expression by quantitative real-time PCR in cultured human fibroblasts; format: cell-based; conditions: human immortalized ATCC fibroblasts, peak at 15 µM
Method: The human immortalized ATCC fibroblasts were exposed for 6 hrs to different concentrations of CAP, ASX, or of a combination of the two compounds (5, 10, 15, and 30 µM). […] ASX causes a dose-dependent increase in HO-1 mRNA, measured relative to the non-inducible HO-2 paralog gene, which peaks (approximately 6-fold) at 15 µM) and subsequently decreases to 30 µM. […] To confirm that the HO-1 gene expression measured at the mRNA level corresponded to an equivalent increase in the heme oxygenase activity, this activity was measured at the same doses of CAP and ASX 6 and 24 hours after administration. […] The results highlight the synergistic activity of CAP and ASX in the ability to activate HO-1 gene expression. In order to determine the best ratio between the two compounds we evaluated using the same experimental model, different proportion of the two compounds at the final concentration of 15 µM (CAP/ASX 1:2, 1:1, 2:1).

Row | SMILES | LPS-stimulated cytokine secretion (IL-1β, IL-6 and TNF-α) [1] | DNA-binding activity of NF-kβ p65 [2] | Nrf2 protein expression in the nuclear extracts [3] | increase in HO-1 mRNA, measured relative to the non-inducible HO-2 paralog gene ([4]; 6 hrs exposure) | HO-1 gene expression (HO-1 mRNA), result in words ([4]; 6 hrs, 5, 10, 15 and 30 µM)
1 | CC1=C(/C=C/C(C)=C/C=C/C(C)=C/C=C/C=C(C)/C=C/C=C(C)/C=C/C2=C(C)C(=O)C(O)CC2(C)C)C(C)(C)CC(O)C1=O (stereo not drawn) [ASX, 3,3'-dihydroxy-β-carotene-4,4'-dion] | significantly reduced | lower DNA-binding activity | significantly increased | approximately 6 fold | –
2 | COc1cc(CNC(=O)CCCC/C=C/C(C)C)ccc1O [CAP, (E)-N-(4-hydroxy-3-methoxybenzyl) -8-methylnon-6-enamide] | significantly reduced | lower DNA-binding activity | lower increase | – | slightly less active
